Measured values taken from ChEMBL document CHEMBL1141992, “Synthesis and radiopharmacological evaluation of 2'-(4-fluorophenyl)-21-[18F]fluoro-20-oxo-11beta,17alpha-dihydroxy-pregn-4-eno[3,2-c]pyrazole as potential glucocorticoid receptor ligand for positron emission tomography (PET)” (Bioorg Med Chem Lett, 2005).

Experiments:
[1] = Radioactivity expressed as percent injected dose per gram after single intravenous injection of 50 uCi after 60 min in rat kidney;n =4; assay type: ADME, tissue-based; settings: in vivo, 1 h
[2] = Activity distribution of compound in blocked (hydrocortisone) rat brain pituitary after single iv injection of 0.9 mCi at 60 min after injection by ex vivo autoradiography; assay type: ADME, organism-based; settings: 1 h
[3] = Radioactivity expressed as percent injected dose per gram after single intravenous injection of 50 uCi after 5 min in rat fat;n =4; assay type: ADME; settings: in vivo
[4] = Radioactivity expressed as percent injected dose per gram after single intravenous injection of 50 uCi after 5 min in rat lung;n =4; assay type: ADME; settings: in vivo
[5] = Radioactivity expressed as percent injected dose per gram after single intravenous injection of 50 uCi after 60 min in rat fat;n =4; assay type: ADME; settings: in vivo, 1 h
[6] = Radioactivity expressed as percent injected dose per gram after single intravenous injection of 50 uCi after 5 min in rat blood;n =4; assay type: ADME; settings: in vivo
[7] = Radioactivity expressed as percent injected dose per gram after single intravenous injection of 50 uCi after 5 min in rat brain;n =4; assay type: ADME, tissue-based; settings: in vivo
[8] = Radioactivity expressed as percent injected dose per gram after single intravenous injection of 50 uCi after 5 min in rat femur;n =4; assay type: ADME, tissue-based; settings: in vivo
[9] = Radioactivity expressed as percent injected dose per gram after single intravenous injection of 50 uCi after 5 min in rat heart;n =4; assay type: ADME; settings: in vivo
[10] = Radioactivity expressed as percent injected dose per gram after single intravenous injection of 50 uCi after 5 min in rat liver;n =4; assay type: ADME, tissue-based; settings: in vivo
[11] = Radioactivity expressed as percent injected dose per gram after single intravenous injection of 50 uCi after 60 min in rat lung;n =4; assay type: ADME; settings: in vivo, 1 h
[12] = Radioactivity expressed as percent injected dose per gram after single intravenous injection of 50 uCi after 5 min in rat kidney;n =4; assay type: ADME, tissue-based; settings: in vivo
[13] = Radioactivity expressed as percent injected dose per gram after single intravenous injection of 50 uCi after 5 min in rat muscle;n =4; assay type: ADME, tissue-based, Muscle tissue; settings: in vivo
[14] = Radioactivity expressed as percent injected dose per gram after single intravenous injection of 50 uCi after 5 min in rat spleen;n =4; assay type: ADME, tissue-based; settings: in vivo
[15] = Radioactivity expressed as percent injected dose per gram after single intravenous injection of 50 uCi after 5 min in rat testis;n =4; assay type: ADME; settings: in vivo
[16] = Radioactivity expressed as percent injected dose per gram after single intravenous injection of 50 uCi after 5 min in rat thymus;n =4; assay type: ADME; settings: in vivo
[17] = Radioactivity expressed as percent injected dose per gram after single intravenous injection of 50 uCi after 60 min in rat thymus;n =4; assay type: ADME; settings: in vivo, 1 h
[18] = Radioactivity expressed as percent injected dose per gram after single intravenous injection of 50 uCi after 5 min in rat adrenals;n =4; assay type: ADME, tissue-based, Adrenal gland; settings: in vivo
[19] = Radioactivity expressed as percent injected dose per gram after single intravenous injection of 50 uCi after 5 min in rat pancreas;n =4; assay type: ADME; settings: in vivo
[20] = Radioactivity expressed as percent injected dose per gram after single intravenous injection of 50 uCi after 5 min in rat pituitary;n =4; assay type: ADME; settings: in vivo
[21] = Radioactivity expressed as percent injected dose per gram after single intravenous injection of 50 uCi after 5 min in rat brown fat;n =4; assay type: ADME; settings: in vivo
[22] = Radioactivity expressed as percent injected dose per gram after single intravenous injection of 50 uCi after 60 min in rat adrenals;n =4; assay type: ADME, tissue-based, Adrenal gland; settings: in vivo, 1 h
[23] = Radioactivity expressed as percent injected dose per gram after single intravenous injection of 50 uCi after 60 min in rat pancreas;n =4; assay type: ADME; settings: in vivo, 1 h
[24] = Radioactivity expressed as percent injected dose per gram after single intravenous injection of 50 uCi after 60 min in rat pituitary;n =4; assay type: ADME; settings: in vivo, 1 h
[25] = Radioactivity expressed as percent injected dose per gram after single intravenous injection of 50 uCi after 60 min in rat brown fat;n =4; assay type: ADME; settings: in vivo, 1 h
[26] = Radioactivity expressed as percent injected dose per gram after single intravenous injection of 50 uCi after 60 min in rat blood;n =4; assay type: ADME; settings: in vivo, 1 h
[27] = Radioactivity expressed as percent injected dose per gram after single intravenous injection of 50 uCi after 60 min in rat brain;n =4; assay type: ADME, tissue-based; settings: in vivo, 1 h
[28] = Radioactivity expressed as percent injected dose per gram after single intravenous injection of 50 uCi after 60 min in rat femur;n =4; assay type: ADME, tissue-based; settings: in vivo, 1 h
[29] = Radioactivity expressed as percent injected dose per gram after single intravenous injection of 50 uCi after 60 min in rat heart;n =4; assay type: ADME; settings: in vivo, 1 h
[30] = Radioactivity expressed as percent injected dose per gram after single intravenous injection of 50 uCi after 60 min in rat liver;n =4; assay type: ADME, tissue-based; settings: in vivo, 1 h
[31] = Radioactivity expressed as percent injected dose per gram after single intravenous injection of 50 uCi after 60 min in rat muscle;n =4; assay type: ADME, tissue-based, Muscle tissue; settings: in vivo, 1 h
[32] = Radioactivity expressed as percent injected dose per gram after single intravenous injection of 50 uCi after 60 min in rat spleen;n =4; assay type: ADME, tissue-based; settings: in vivo, 1 h
[33] = Radioactivity expressed as percent injected dose per gram after single intravenous injection of 50 uCi after 60 min in rat testis;n =4; assay type: ADME; settings: in vivo, 1 h
[34] = Radioactivity expressed as percent injected dose per gram after single intravenous injection of 50 uCi after 5 min in rat hard glands;n =4; assay type: ADME; settings: in vivo
[35] = Radioactivity expressed as percent injected dose per gram after single intravenous injection of 50 uCi after 60 min in rat hard glands;n =4; assay type: ADME; settings: in vivo, 1 h
[36] = Activity distribution of compound in blocked (hydrocortisone) rat brain cortex after single iv injection of 0.9 mCi at 60 min after injection by ex vivo autoradiography; assay type: ADME, organism-based; settings: 1 h
[37] = Activity distribution of compound in blocked (hydrocortisone) rat brain hippocampus after single iv injection of 0.9 mCi at 60 min after injection by ex vivo autoradiography; assay type: ADME, organism-based; settings: 1 h
[38] = Activity distribution of compound in blocked (hydrocortisone) rat brain cerebellar nuclei after single iv injection of 0.9 mCi at 60 min after injection by ex vivo autoradiography; assay type: ADME, organism-based; settings: 1 h
[39] = Activity distribution of compound in blocked (hydrocortisone) rat brain plexus choroideus after single iv injection of 0.9 mCi at 60 min after injection by ex vivo autoradiography; assay type: ADME, organism-based; settings: 1 h
[40] = Activity distribution of compound in blocked (hydrocortisone) rat brain inferior coliculi after single iv injection of 0.9 mCi at 60 min after injection by ex vivo autoradiography; assay type: ADME, organism-based; settings: 1 h

ID/g [1]: 0.87%
ID/g [2]: 1.36%
ID/g [3]: 0.82%
ID/g [4]: 0.6%
ID/g [5]: 0.31%
ID/g [6]: 0.06%
ID/g [7]: 0.26%
ID/g [8]: 0.34%
ID/g [9]: 0.63%
ID/g [10]: 1.3%
ID/g [11]: 0.66%
ID/g [12]: 0.66%
ID/g [13]: 0.31%
ID/g [14]: 0.4%
ID/g [15]: 0.18%
ID/g [16]: 0.37%
ID/g [17]: 0.4%
ID/g [18]: 1.23%
ID/g [19]: 0.85%
ID/g [20]: 0.52%
ID/g [21]: 0.8%
ID/g [22]: 1.96%
ID/g [23]: 0.85%
ID/g [24]: 0.82%
ID/g [25]: 0.91%
ID/g [26]: 0.08%
ID/g [27]: 0.25%
ID/g [28]: 0.22%
ID/g [29]: 0.66%
ID/g [30]: 2.15%
ID/g [31]: 0.32%
ID/g [32]: 0.44%
ID/g [33]: 0.07%
ID/g [34]: 1.09%
ID/g [35]: 0.55%
ID/g [36]: 0.7%
ID/g [37]: 0.59%
ID/g [38]: 0.94%
ID/g [39]: 0.83%
ID/g [40]: 0.89%
SMILES: C[C@]12Cc3cnn(-c4ccc(F)cc4)c3C=C1CCC1C2[C@@H](O)C[C@@]2(C)C1CC[C@]2(O)C(=O)C[18F] (stereo not given in full)
